Test results from patent US7700593B2, “Imidazo- and triazolo-pyridine compounds and methods of use thereof” (Amgen Inc., priority 2006, dated 2010).

Key:
p38α = p38α (Homo sapiens, UniProt Q16539); test: p38 in-vitro HTRF enzyme assay; assay type: biochemical; conditions: IC50 value ranges
Procedure, shortened: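 Activated recombinant human p38α with ATP and 100 nM GST-ATF2-Avitag, 1 h at RT in Tris pH 7.5/MgCl2 buffer; compound 10-point 3-fold series from about 1 μM final. HTRF 665/620 nm ratio; IC50 from 4-parameter fit, Ki via Cheng-Prusoff with experimental ATP Km.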

THP1 cells = test: Lipopolysaccharide-activated THP1 cell TNF production assay; assay type: cell-based, human; conditions: Homo sapiens, THP-1; LPS-induced TNF-α production in THP1 cells
Procedure, shortened: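 THP1 cells at 1E6/mL were stimulated with LPS (1 μg/mL prepared stock) alongside 3-fold serially diluted compound for 3 h at 37 °C. Secreted TNF-α was quantified by electrochemiluminescence sandwich immunoassay. Percent of DMSO control was fitted to a 4-parameter logistic equation.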

monocytes = test: Lipopolysaccharide-activated monocyte TNF production assay (LPS induced TNF release); assay type: cell-based, human; conditions: Homo sapiens, Monocyte; LPS induced TNF release from monocytes; read-out: LPS induced TNFa
Procedure, shortened: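 Adherent monocytes from human PBMCs were pretreated with compound 60 min, then stimulated with E. coli LPS (30 ng/mL stock added) for 4 h at 37 °C. Supernatant TNF-α measured by sandwich ELISA; concentration giving 50% TNF reduction derived by polynomial fit.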

Chain of p38α (Q16539 whole entry): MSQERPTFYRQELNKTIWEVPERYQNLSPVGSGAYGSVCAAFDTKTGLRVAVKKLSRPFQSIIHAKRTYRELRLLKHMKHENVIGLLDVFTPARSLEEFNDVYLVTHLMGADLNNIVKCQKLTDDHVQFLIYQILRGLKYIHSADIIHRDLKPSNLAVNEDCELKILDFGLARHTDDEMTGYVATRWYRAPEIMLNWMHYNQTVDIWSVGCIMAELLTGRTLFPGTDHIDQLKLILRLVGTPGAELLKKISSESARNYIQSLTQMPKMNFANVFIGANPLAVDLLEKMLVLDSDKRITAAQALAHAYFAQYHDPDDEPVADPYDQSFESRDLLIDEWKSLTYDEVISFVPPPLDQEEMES

Compound | IC50 (p38α) | IC50 (THP1 cells) | IC50 (monocytes)
Cc1ccccc1-c1nnc2cc(-c3cc(C(=O)NC4CC4)cc(F)c3C)ccn12 [Example 82, N-cyclopropyl-3-fluoro-4-methyl-5-(3-(2-methylphenyl)[1,2,4]triazolo[4,3-a]pyridin-7-yl)benzamide] | < 25 nM | < 25 nM | < 25 nM
Cc1ccc(C(=O)NC2CC2)cc1-c1ccn2c(-c3ccccc3Cl)nnc2c1 [Example 10, 3-(3-(2-chlorophenyl)[1,2,4]triazolo[4,3-a]pyridin-7-yl)-N-cyclopropyl-4-methylbenzamide] | < 25 nM | < 25 nM | 25 to 100 nM
Cc1ccc(C(=O)NC2CC2)cc1-c1cc(C)n2c(-c3ccccc3Cl)nnc2c1 [Example 6, 3-(3-(2-chlorophenyl)-5-methyl[1,2,4]triazolo[4,3-a]pyridin-7-yl)-N-cyclopropyl-4-methylbenzamide] | < 25 nM | < 25 nM | 25 to 100 nM

The next lines start with the values.

IC50 (p38α) | IC50 (THP1 cells) | IC50 (monocytes) | Compound
< 25 nM | 25 to 100 nM | 25 to 100 nM | Cc1ccc(C(=O)Nc2ccnn2C)cc1-c1ccn2c(-c3ccccc3F)nnc2c1 [Example 30, 3-(3-(2-fluorophenyl)[1,2,4]triazolo[4,3-a]pyridin-7-yl)-4-methyl-N-(1-methyl-1H-pyrazol-5-yl)benzamide]
< 25 nM | 25 to 100 nM | 100 to 250 nM | Cc1ccc(C(=O)NC2CC2)cc1-c1ccn2c(C3CCCCC3)nnc2c1 [Example 94, 3-(3-cyclohexyl[1,2,4]triazolo[4,3-a]pyridin-7-yl)-N-cyclopropyl-4-methylbenzamide]
< 25 nM | < 25 nM | < 25 nM | Cc1cccc(F)c1-c1nnc2cc(-c3cc(C(=O)NC4CC4)cc(F)c3C)ccn12 [Example 83, N-cyclopropyl-3-fluoro-5-(3-(2-fluoro-6-methylphenyl)[1,2,4]triazolo[4,3-a]pyridin-7-yl)-4-methylbenzamide]
